Data published in PMC6437697 (Journal of Medicinal Chemistry, 2019).

Legend:
Experiment in all cases: KINOMEscan
Format in all cases: binding
Conditions in all cases: read-out: % control activity remaining
DRAK1 = target: T1, DRAK1 (Homo sapiens, UniProt Q9UEE5)
T1 construct: purchased Eurofins DiscoverX KINOMEscan
T1 sequence (Q9UEE5 1-414): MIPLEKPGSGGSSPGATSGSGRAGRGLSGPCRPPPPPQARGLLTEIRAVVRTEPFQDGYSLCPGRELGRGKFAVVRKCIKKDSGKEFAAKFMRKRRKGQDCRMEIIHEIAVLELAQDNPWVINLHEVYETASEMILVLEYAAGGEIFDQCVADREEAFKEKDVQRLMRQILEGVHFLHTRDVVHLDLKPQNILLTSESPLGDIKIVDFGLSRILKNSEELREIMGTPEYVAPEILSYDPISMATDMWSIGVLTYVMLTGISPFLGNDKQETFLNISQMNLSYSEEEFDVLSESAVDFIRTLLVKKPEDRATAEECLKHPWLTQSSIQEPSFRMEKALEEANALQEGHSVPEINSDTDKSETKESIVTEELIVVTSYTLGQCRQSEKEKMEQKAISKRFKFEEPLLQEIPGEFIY

STK36 = target: T2, STK36 (Homo sapiens, UniProt Q9NRP7)
T2 construct: purchased Eurofins DiscoverX KINOMEscan
T2 sequence (Q9NRP7 1-1315): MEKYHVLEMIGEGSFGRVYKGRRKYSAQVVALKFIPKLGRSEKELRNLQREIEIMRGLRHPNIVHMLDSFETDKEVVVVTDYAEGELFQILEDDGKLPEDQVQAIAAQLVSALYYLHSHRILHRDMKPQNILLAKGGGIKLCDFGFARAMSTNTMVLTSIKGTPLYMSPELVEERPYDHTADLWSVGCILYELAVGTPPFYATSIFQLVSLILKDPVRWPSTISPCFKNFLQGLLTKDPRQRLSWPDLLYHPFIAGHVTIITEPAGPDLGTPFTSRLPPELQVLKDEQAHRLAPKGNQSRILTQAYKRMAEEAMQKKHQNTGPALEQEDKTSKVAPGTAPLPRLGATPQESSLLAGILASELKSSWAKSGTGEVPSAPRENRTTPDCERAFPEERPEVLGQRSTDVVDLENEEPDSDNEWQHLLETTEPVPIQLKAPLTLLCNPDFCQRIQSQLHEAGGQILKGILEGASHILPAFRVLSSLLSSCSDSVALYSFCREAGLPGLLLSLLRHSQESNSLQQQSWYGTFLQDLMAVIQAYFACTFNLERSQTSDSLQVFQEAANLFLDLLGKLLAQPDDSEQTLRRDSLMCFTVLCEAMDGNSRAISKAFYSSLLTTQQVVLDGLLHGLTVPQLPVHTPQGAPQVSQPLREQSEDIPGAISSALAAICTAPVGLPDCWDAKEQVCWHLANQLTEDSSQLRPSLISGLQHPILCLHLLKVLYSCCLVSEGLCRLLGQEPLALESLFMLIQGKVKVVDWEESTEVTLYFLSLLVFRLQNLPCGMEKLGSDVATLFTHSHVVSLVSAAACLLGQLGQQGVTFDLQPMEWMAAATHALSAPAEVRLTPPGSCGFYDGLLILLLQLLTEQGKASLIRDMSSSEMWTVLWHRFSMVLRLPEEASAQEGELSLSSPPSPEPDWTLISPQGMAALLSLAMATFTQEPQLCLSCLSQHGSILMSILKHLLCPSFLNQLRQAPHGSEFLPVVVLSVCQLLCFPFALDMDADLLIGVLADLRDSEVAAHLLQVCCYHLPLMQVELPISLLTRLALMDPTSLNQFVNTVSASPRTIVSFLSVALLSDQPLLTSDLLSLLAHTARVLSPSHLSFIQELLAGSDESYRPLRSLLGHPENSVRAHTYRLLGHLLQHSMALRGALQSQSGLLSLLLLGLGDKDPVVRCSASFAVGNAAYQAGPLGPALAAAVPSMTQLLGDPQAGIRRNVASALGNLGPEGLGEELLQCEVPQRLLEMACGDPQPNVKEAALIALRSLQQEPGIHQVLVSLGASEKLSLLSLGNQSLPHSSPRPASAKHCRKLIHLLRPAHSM

MYO3B = target: T3, MYO3B (Homo sapiens, UniProt Q8WXR4)
T3 construct: purchased Eurofins DiscoverX KINOMEscan
T3 sequence (Q8WXR4 1-1341): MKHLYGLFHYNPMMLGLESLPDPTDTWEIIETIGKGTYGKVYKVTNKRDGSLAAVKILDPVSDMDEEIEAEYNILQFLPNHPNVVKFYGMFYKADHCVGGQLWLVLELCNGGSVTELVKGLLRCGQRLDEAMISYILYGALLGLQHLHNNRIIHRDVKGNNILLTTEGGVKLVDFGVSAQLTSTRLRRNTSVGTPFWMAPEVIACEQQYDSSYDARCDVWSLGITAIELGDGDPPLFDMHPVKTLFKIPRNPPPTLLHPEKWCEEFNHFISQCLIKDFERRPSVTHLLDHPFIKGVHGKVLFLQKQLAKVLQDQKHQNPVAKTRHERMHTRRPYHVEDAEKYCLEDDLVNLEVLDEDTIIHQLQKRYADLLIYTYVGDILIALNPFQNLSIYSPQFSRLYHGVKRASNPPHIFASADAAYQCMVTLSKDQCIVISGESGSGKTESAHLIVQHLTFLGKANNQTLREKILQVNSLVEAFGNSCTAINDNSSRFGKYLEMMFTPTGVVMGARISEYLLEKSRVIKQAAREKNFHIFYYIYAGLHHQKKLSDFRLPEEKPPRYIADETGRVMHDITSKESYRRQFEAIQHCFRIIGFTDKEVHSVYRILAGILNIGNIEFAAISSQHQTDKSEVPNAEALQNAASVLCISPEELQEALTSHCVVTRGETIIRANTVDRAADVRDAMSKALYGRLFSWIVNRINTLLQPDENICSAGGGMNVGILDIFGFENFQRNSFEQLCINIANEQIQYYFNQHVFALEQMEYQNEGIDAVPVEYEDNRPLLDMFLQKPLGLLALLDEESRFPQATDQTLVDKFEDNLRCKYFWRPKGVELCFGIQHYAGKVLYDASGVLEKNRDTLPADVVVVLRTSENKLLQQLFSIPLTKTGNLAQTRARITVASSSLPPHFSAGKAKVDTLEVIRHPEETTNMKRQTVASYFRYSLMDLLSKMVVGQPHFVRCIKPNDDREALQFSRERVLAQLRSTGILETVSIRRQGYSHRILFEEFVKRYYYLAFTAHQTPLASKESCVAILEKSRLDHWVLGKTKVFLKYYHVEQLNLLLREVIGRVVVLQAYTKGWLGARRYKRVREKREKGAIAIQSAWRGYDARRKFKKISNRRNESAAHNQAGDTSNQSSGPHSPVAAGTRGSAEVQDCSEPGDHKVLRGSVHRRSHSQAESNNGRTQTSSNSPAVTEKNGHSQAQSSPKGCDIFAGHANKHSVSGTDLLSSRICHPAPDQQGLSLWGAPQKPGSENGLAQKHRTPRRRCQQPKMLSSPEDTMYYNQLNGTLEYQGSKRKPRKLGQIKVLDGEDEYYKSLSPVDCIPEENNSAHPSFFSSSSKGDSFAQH

| Structure (SMILES) | remaining binding at 1 µM (DRAK1) [%] | remaining binding at 1 µM (STK36) [%] | remaining binding at 1 µM (MYO3B) [%] |
| --- | --- | --- | --- |
| Clc1cc(NCC2CC2)c2ncc(-c3ccc4[nH]ncc4c3)n2n1 [compound 2, 6-Chloro-N-(cyclopropylmethyl)-3-(1H-indazol-5-yl)imidazo[1,2-b]pyridazin-8-amine] | 18 | 91 | 82 |
| O=C(CN1CCOCC1)N[C@H]1CC[C@H](Nc2cc(Cl)nn3c(-c4ccc5[nH]ncc5c4)cnc23)CC1 [compound 26] | 20 | 95 | 92 |
| CN1CCC(CNc2cc(Cl)nn3c(-c4cc5nc(Nc6ccccc6)[nH]c5cc4F)cnc23)CC1 [compound 31, 6-Chloro-3-(6-fluoro-2-(phenylamino)-1H-benzo[d]imidazol-5-yl)-N-((1-methylpiperidin-4-yl)methyl)imidazo[1,2-b]pyridazin-8-amine] | 91 | 93 | 73 |
